Measured values from US10744119B1, “Inhibitors of the malarial GST” (University of Puerto Rico, priority 2014, dated 2020).
Where two headings read alike, the source gives them in different places.

Experiments:
P. berghei blood stages [1] = experiment: Plasmodium berghei in vitro drug luminescence (ITDL) assay; assay type: cell-based; conditions: read-out: EC50, growth inhibition of P. berghei blood stages
Procedure: The compounds were received as 10 mM stocks dissolved in 100% DMSO. These stocks were stored at −20° C. The DMSO stock compounds were diluted in complete culture medium (RPMI1640 medium supplemented with 20% FBS from Gibco® heat-inactivated and Neomycin stock solution of 10,000 IU/mL from Sigma-Aldrich®) for use in the Plasmodium berghei in vitro drug luminescence assay. For initial testing, the compounds were used at the following concentration: 0.01 μM, 0.1 μM, 1 μM and 10 μM; in triplicate point to determine the inhibition curve for each compound.
This assay measures the in vitro development of P. berghei ring stage into mature schizonts in the presence of inhibitors/drugs. The Swiss-CD1 female mice were infected with the GFP-luc parasite line. The GFP-luc parasite line allows determination of the luciferase activity in the cultured mature schizonts, which is directly proportional to the number of schizonts. When the parasitemia reaches 1-3%, the RBCs were collected from the infected mice and used to perform the assay. The susceptibility of blood stages parasites was determined in the presence of standard GST inhibitors and the TCAMS compounds identified from the VLS. […] The standard GST inhibitors were weighed and dissolved in 100% DMSO to prepare the stock solution. Dilutions of the standard GST inhibitors were freshly prepared in complete culture medium (RPMI1640 medium supplemented with 20% FBS from Gibco® heat-inactivated and Neomycin stock solution of 10,000 IU/mL from Sigma-Aldrich®) for each assay. The dilutions of the inhibitors were added to the wells in triplicates, 50 μL per well. Chloroquine diphosphate salt from Sigma-Aldrich® was used as a control (at a concentration of 100 nM) for complete inhibition of blood stage development. Further, infected blood was collected from one mouse by cardiac puncture under anesthesia early in the morning (between 9:00-10:[…]). The blood was added to a 50 mL tube containing 5 mL complete culture medium supplemented with 300 μL heparin stock solution (25,000 U/mL). The blood was centrifuged for 8 min at 450×g and the supernatant was removed. The blood was resuspended in a complete culture medium comprising a concentration of 2% (v/v). In the next step, 50 μL of the blood suspension was added in each well containing the inhibitors dilutions. The 96-well black culture plates containing the infected blood solution were placed into a candle jar. The candle jar was carefully flushed with a gas mixture of 5% CO2, 5% O2, 90% N2 using a 0.22 μm filter unit connected to the gas hose for 2 minutes. The lid was tightly closed immediately after gassing. The infected blood suspension was incubated at 37° C. with continuous agitation (enough to keep the cells suspended) for 24 hours allowing the ring stages to develop into the mature schizonts. After the culture period, the schizonts were evaluated by microscopic examination of Diff Quick-stained thin blood smears. The 96-well plate was centrifuged at 1,000×g for 5 minutes. The supernatant was removed using a syringe needle on those sides of the wells without red blood cell after spinning. The luciferase activity was measured in cultured mature schizonts using the Luciferase Assay System Kit from Promega (Cat. No. E1500). The RBCs were lysed by adding 50 μL of 1× cell culture lysis reagent into each well. The plate was shaken for 5 minutes to assure complete lysis. Afterward, 50 μL of the luciferase assay reagent was added. The luminescence was measured using the SpectraMax® M3 Microplate Reader (Molecular Devices). […] The data was analyzed and used to generate standard in vitro inhibition curves, and EC50 values of each compound were calculated. Preliminary data analyses were performed using Microsoft Excel and the effective concentration (50% of the maximal inhibition; EC50 values) were calculated using GraphPad Prism software (Graph-Pad software, Inc., US, Mac Version 6).

[2] = target: T1, human placenta GST (hGST) (Homo sapiens, UniProt P09211); experiment: Inhibition of GST activity (CDNB/GSH, 340 nm) of human placenta GST; assay type: biochemical
T1 construct: the human placenta GST from Sigma-Aldrich® (Cat No. G8642); purchased Sigma-Aldrich G8642; host or cells: human placenta (tissue-derived)
T1 sequence (P09211 2-210 limits assumed): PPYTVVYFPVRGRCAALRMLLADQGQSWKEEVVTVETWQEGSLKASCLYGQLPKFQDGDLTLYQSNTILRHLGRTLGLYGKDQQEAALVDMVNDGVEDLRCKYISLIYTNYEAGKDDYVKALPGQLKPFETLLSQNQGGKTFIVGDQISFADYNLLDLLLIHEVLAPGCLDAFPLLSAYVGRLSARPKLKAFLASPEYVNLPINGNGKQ
Procedure: Glutathione S-transferase Activity in Blood Stage Parasites: The parasite extracts were prepared as the method described in the Protein for Enzymatic Activity. The enzymatic activity was determined spectroscopically using the chromogenic substrate 1-chloro-2,4-dinitrobenzene (CDNB) from Sigma-Aldrich®. The GST activity was assayed at 25° C. in P. berghei protein extracts by monitoring the increase in absorbance at 340 nm on the basis of the extinction coefficient for the product S-(2,4-dinitrophenyl) glutathione (ε340 nm=9.6 mM^−1 cm^−1). The absorbance was measured in a 96-well plate (UV flat bottom Microtiter®, from Thermo Scientific) using the SpectraMax® M3 Microplate Reader (Molecular Devices). […]
The compounds stock solutions were prepared in 100% DMSO. […] The half maximal inhibitory concentration (IC50) values were calculated using the non-linear regression function for sigmoidal dose-response (variable slope). Inhibition curves of pbGST was done in two independent experiments with one replicate each (n=2) whereas the inhibition curves of hGST was determined in three independent experiments in triplicate (n=9). […]
The GSK TCAMS compounds dilutions were prepared in DMSO and the final concentration of DMSO in the assay was 0.5%. […] The reaction was started by adding 1 mM GSH and activity was measured spectroscopically at 340 nm absorbance. […]

P. berghei GST (pbGST) = P. berghei GST (pbGST) (Plasmodium berghei, UniProt A0A509AJX5); experiment: Inhibition of GST activity (CDNB/GSH, 340 nm) in P. berghei protein extracts; assay type: biochemical; conditions: for inhibitory activity on pbGST: 1, 10 and 50 μM, duplicate (n=2), more marked effect at 50 μM
Chain of P. berghei GST (pbGST) (A0A509AJX5 entry or part of it): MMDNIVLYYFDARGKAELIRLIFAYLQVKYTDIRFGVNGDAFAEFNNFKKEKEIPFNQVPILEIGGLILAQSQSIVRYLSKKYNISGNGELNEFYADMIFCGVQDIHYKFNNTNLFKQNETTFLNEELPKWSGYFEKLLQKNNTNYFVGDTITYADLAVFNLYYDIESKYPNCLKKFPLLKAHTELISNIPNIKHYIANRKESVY
Procedure: Glutathione S-transferase Activity in Blood Stage Parasites: The parasite extracts were prepared as the method described in the Protein for Enzymatic Activity. The enzymatic activity was determined spectroscopically using the chromogenic substrate 1-chloro-2,4-dinitrobenzene (CDNB) from Sigma-Aldrich®. The GST activity was assayed at 25° C. in P. berghei protein extracts by monitoring the increase in absorbance at 340 nm on the basis of the extinction coefficient for the product S-(2,4-dinitrophenyl) glutathione (ε340 nm=9.6 mM^−1 cm^−1). The absorbance was measured in a 96-well plate (UV flat bottom Microtiter®, from Thermo Scientific) using the SpectraMax® M3 Microplate Reader (Molecular Devices). The parasite extract (0.65 mg/mL) and 1 mM CDNB were added to a 100 mM potassium phosphate (pH 6.5) buffer. The reaction was started by adding 1 mM GSH. To detect any residual GST activity associated with the parasite extract, blank reactions as controls (no GSH) were included. The Enzyme activity is reported as units (micromole of GSH/min)/mg of protein. This assay was standardized using the human placenta GST from Sigma-Aldrich® (Cat No. G8642) and used as positive control.
The compounds stock solutions were prepared in 100% DMSO. […] The half maximal inhibitory concentration (IC50) values were calculated using the non-linear regression function for sigmoidal dose-response (variable slope). Inhibition curves of pbGST was done in two independent experiments with one replicate each (n=2) whereas the inhibition curves of hGST was determined in three independent experiments in triplicate (n=9). […] GraphPad Prism software (Graph-Pad software, Inc., US, Mac Version 6) was used to make the graph and to perform the statistical analyses.
The GSK TCAMS compounds dilutions were prepared in DMSO and the final concentration of DMSO in the assay was 0.5%. Inhibition of pbGST by the GSK TCAMS compounds were determined by adding variable concentration of compounds (1, 10 and 50 μM) with a fixed P. berghei protein extracts concentration (0.65 mg/mL) in a total volume of 200 μL containing 1 mM CDNB and 100 mM potassium phosphate buffer (pH 6.5) at 25° C. The reaction was started by adding 1 mM GSH and activity was measured spectroscopically at 340 nm absorbance. The data obtained by varying compound concentration was analyzed using a column bar graph. Inhibition of pbGST by the GSK TCAMS compounds was done in duplicate. One GSK TCAMS compound, TCMDC-124132, was analyzed against the hGST in two independent experiments in triplicate (n=6). A statistical analysis was done using the GraphPad Prism software (Graph-Pad software, Inc., US, Mac Version 6). […]

P. berghei blood stages [3] = conditions: read-out: EC50, published results; published value; cited from earlier work
[4] = ring stage to mature schizont development, 24 hours, luciferase readout, three independent experiments

| Compound | EC50 (P. berghei blood stages [1]; [4]) | inhibitory activity on pbGST (P. berghei GST (pbGST)) | further results |
| --- | --- | --- | --- |
| c1ccc2[nH]c(CN(Cc3nc4ccccc4[nH]3)Cc3nc4ccccc4[nH]3)nc2c1 [Compound 8] | 1150 nM | tendency of inhibition | inhibitory activity on human placenta GST ([2]; at 50 μM and 100 μM, statistical difference at 100 μM, n=6): tendency of inhibition |
| CCCCCCSC[C@H](NC(=O)CC[C@H](N)C(=O)O)C(=O)NCC(=O)O [S-hexylglutathione, reference compound] |  |  | EC50 (P. berghei blood stages [1]; Plasmodium berghei, 24 h): 6860 nM; inhibition at 50 µM ([2]; 50 μM compound): 50%; inhibition at 50 µM (P. berghei GST (pbGST); 50 μM compound): 50% |
| CCN(CC)CCCC(C)Nc1ccnc2cc(Cl)ccc12 (centres unmarked) [Chloroquine] |  |  | EC50 (P. berghei blood stages [3]): 20 nM |
| COc1cc(/C=C/C(=O)CC(=O)/C=C/c2ccc(O)c(OC)c2)ccc1O [curcumin, reference compound] |  |  | EC50 (P. berghei blood stages [1]; Plasmodium berghei, 24 h): 15000 nM |
| C=C(CC)C(=O)c1ccc(OCC(=O)O)c(Cl)c1Cl [ethacrynic acid, reference compound] |  |  | EC50 (P. berghei blood stages [1]; Plasmodium berghei, ring stage to mature schizont development, 24 hours, luciferase readout, three independent experiments): 14700 nM |
| COc1ccc2nccc([C@@H](O)CN3CCC(NC(=O)c4cc5c(F)cc(F)cc5[nH]4)CC3)c2n1 [Compound 6] | 1480 nM | No inhibitory activity |  |
| Oc1ccc(CCNc2nc(NCc3ccccc3-c3ccc(C(F)(F)F)cc3)nc(N3CCNCC3)n2)cc1 [Compound 12] | 3030 nM |  |  |
| O=C1Nc2cccc3c2C1(CCCCN1CCC(c2cc4ccncc4[nH]2)CC1)CCC3 (centres unmarked) [TCMDC-141151/TCMDC-141221] | 1040 nM | No inhibitory activity |  |
